# Target: T1, aromatase (Homo sapiens, UniProt P11511)
# T1 construct: This supernatant was subjected to an ultracentrifugation stage for 90 minutes at 105,000 g to obtain the microsomal deposit; from tissue; host or cells: human placenta, microsomes
# T1 sequence (P11511 1-503): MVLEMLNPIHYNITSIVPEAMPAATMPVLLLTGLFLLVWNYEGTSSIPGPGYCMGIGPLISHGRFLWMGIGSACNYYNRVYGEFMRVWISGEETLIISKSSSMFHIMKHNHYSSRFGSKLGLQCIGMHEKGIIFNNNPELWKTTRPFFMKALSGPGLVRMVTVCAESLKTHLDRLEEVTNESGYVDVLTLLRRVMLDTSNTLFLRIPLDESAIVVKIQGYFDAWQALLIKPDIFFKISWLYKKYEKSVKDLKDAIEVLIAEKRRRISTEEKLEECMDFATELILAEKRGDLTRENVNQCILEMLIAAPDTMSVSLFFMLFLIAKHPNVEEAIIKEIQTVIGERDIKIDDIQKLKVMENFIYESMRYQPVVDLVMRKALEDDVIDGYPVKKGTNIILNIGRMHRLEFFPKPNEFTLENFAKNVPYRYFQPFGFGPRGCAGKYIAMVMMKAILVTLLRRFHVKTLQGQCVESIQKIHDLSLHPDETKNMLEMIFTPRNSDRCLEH
# Assay: Inhibition of aromatase in placental microsomes (measurement of the CI50)
# Type: biochemical
# Conditions: human placental microsomes (25 microgramms of proteins per test); 60 nM Androstenedione with 1β-2β-(H^3)-Androstenedione; NADPH; pH=7.2; 37° C., 10 minutes; tritiated water release; read-out: CI50 (concentration of the inhibitor necessary to reduce the enzymatic activity by 50%)
# Procedure: Inhibition dependent on the concentration (measurement of the CI50 =concentration of the inhibitor necessary to reduce the enzymatic activity by 50%).
# Human placentas were used which were washed one hour at most after delivery, then perfused with physiological serum (5 liters) via the umbilical vein, then deep-frozen at -40° C.
# 1) Obtaining the placental microsomes
# The placentas were thawed out at 4° C., then homogenized (1:3) in a 10 mM phosphate buffer, pH=7.0 containing 100 milimoles of potassium chloride (KCl), 10 millimoles of dithiothreitol (DTT), 10 millimoles of ethylenediaminetetra-acetic acid (EDTA), 40 millimoles of nicotinamide and 250 millimoles of sucrose. The homogenates were then subjected to different phases of centrifugation until a "9000 g" supernatant was obtained (corresponding to cytosol and to endosplasmic reticulum). […] The protein concentration of the microsomal suspension was determined by the BRADFORD method [BRADFORD, Anal. Biochem., Voml. […]
# Then the enzymatic reaction was very rapidly initiated by the addition of 10 microliters of reduced nicotinamide adenine dinucleotide phosphate (NADPH) solubilized in water. […] After centrifugation, and for each tube, 100 microliters of supernatant was removed and counted in the presence of a scintillating liquid. […]
structure (smiles),measurement,value
"CC12CC=C3C(CCC4=CC(=O)CCC43CC=O)C1CCC2=O (stereo not shown) [Example 3, ^4,9(11) -androstadiene-3,17-dione-19-carboxaldehyde]",IC50,85 nM

# Reference: patent US5081114A, “Steroids” (Roussel Uclaf, priority 1989, dated 1992)
